The values below come from patent US20140294978A1, “CATIONIC LIPID” (Kyowa Hakko Kirin Co., Ltd., priority 2013, published 2014).

The subject of one data set is Factor VII. Nature of the data set: In vivo drug efficacy: Factor VII protein level in plasma of mice after intravenous f7 siRNA preparations. The following applies: Balb/c mice, 0.3 or 0.1 mg/kg in terms of siRNA, 48 hours after administration, f7 siRNA preparation, FIG. 4. As for the experimental part:
Each of the preparations obtained in Examples 10 and 11 (the compositions containing Compound I-6, I-1, I-7, or I-8, and the nucleic acid) was tested for evaluating the in vivo drug efficacy according to the following method. Incidentally, each preparation was used after it was diluted in accordance with the test.
After mice (Balb/c, obtained from CLEA Japan, Inc.) were housed and acclimated, each preparation was intravenously administered to mice at a dose of 0.3 or 0.1 mg/kg in terms of siRNA concentration. At 48 hours after the administration, blood was collected, and the collected blood was centrifuged at 8000 rpm for 8 minutes at 4° C. using a high speed refrigerated microcentrifuge (TOMY MX305, manufactured by Tomy Seiko Co., Ltd.). The Factor VII protein level in the thus obtained plasma sample was determined as follows. A BIOPHEN VII Kit (Cat. No. A221304, manufactured by ANIARA Company) was used, and according to the method described in the protocol attached to the kit, the absorbance was measured in a standard solution and in the plasma sample using ARVO (405 nm). On the basis of the obtained absorbance, a calibration curve was prepared, and the Factor VII protein level in the plasma was calculated. Incidentally, the number of mice in each group was set to 3.

The nature of data set [1]: Average particle diameter of the lipid nanoparticles in each preparation (Zetasizer Nano ZS). It counts as physicochemical. An excerpt: Each sample was weighed so that the ratio of each of Compounds I-1 to I-5/1,2-dimyristoyl-sn-glycero-3-phosphoethanolamine-N-(methoxy(polyethylene glycol)-2000) sodium salt (PEG-DMPE Na, N-(carbonylmethoxypolyethylene glycol 2000)-1,2-dimyristoyl-sn-glycero-3-phosphoethanolamine sodium salt, manufactured by NOF Corporation)/disteazoylphosphatidyl choline (DSPC, 1,2-distearoyl-sn-glycero-3-phosphocholine, manufactured by NOF Corporation)/choiestercl (manufactured by NOF Corporation)=8.947/1.078/5.707/13.698 mmol/L, and dissolved in 90 vol % ethanol, whereby a solution containing the constituent components of a lipid membrane was prepared. Separately, apo-b siRNA in distilled water (24 mg/mL) was diluted with a Tris-EDTA buffer solution (200 mM Tris-HCl, 20 mM EDTA, manufactured by Invitrogen Co., Ltd.) and a 20 mM citric acid buffer solution (pH 5.0), whereby a 1.5 mg/mL apo-b siRNA aqueous solution (2 mM Tris-EDTA buffer solution, 20 mM citric acid buffer solution, pH 5.0) was prepared.
The obtained lipid solution was heated to 37° C., and a 500 μL portion was transferred to a container for preparing a preparation. The obtained apo-b siRNA aqueous solution (500 μL) was then added thereto while stirring. Then, a 20 mM citric acid buffer solution (containing 300 mM NaCl, pH 6.0, 1000 μL) was added to the obtained lipid nucleic acid mixed suspension (1000 μL) while stirring, and further, DPBS (manufactured by Invitrogen Co., Ltd., 3310 μL) was added dropwise thereto, whereby a crude preparation was obtained. The obtained crude preparation was concentrated by using Amicon Ultra (manufactured by Millipore Co., Ltd.), and further, the solvent was replaced with DPBS, and the resulting mixture was filtered through a 0.2-μm filter (manufactured by Toyo Roshi Kaisha, Ltd.) in a laminar flow cabinet. Further, the siRNA concentration in the obtained preparation was measured, and the preparation was diluted with DPBS so that the siRNA concentration was 0.3 mg/mL, whereby preparations (compositions containing any of Compounds I-1 to I-5, and the nucleic acid) were obtained.
The average particle diameter of the lipid nanoparticles in each preparation was measured using a particle diameter measurement device (Zetasizer Nano ZS, manufactured by Malvern).
Preparations were obtained in the same manner as in Example 9 except that Compounds I-1 to I-5 were changed to DLin-KC2-DMA synthesized by a modified method of the method described in WO2010/042877 and the compounds obtained in Reference Examples 5 to 7 (Compounds VII-1 to VII-3).
The average particle diameter of the lipid nanoparticles in each preparation was measured using a particle diameter measurement device.
Each sample was weighed so that the ratio of Compound I-6/PEG-DMPE Na (manufactured by NOF Corporation)/DSPC (manufactured by NOF Corporation)/cholesterol (manufactured by NOF Corporation)=3.532/0.270/1.156/2.401 mmol/L, and dissolved in 100 volt ethanol, whereby a solution containing the constituent components of a lipid membrane was prepared.
The obtained lipid solution was heated to 37° C., and an 800 μL portion was transferred to a container for preparing a preparation. The obtained f7 siRNA aqueous solution (800 μL) was then added thereto while stirring. Then, a 20 mM citric acid buffer solution (containing 300 mM NaCl, pH 6.0, 1600 μL) was added to the obtained lipid nucleic acid mixed suspension (1600 μL) while stirring, and further, DPBS (manufactured by Invitrogen Co., Ltd., […]) was added dropwise thereto, whereby a crude preparation was obtained. The obtained crude preparation was concentrated by using Amicon Ultra (manufactured by Millipore Co., Ltd.), and further, the solvent was replaced with DPBS, and the resulting mixture was filtered through a 0.45-μm filter (manufactured by Toyo Roshi Kaisha, Ltd.) in a laminar flow cabinet. […]

The subject of data set [2] is apo-b gene mRNA in human liver cancer-derived cell line HepG2. Kind of data set: Expression ratio of apo-b mRNA after introduction of preparations into HepG2 cells. The following applies: preparation with apo-b siRNA, nucleic acid 1 to 30 nM, 24 hours, FIG. 1. It counts as cell-based. The source says:
Each of the preparations obtained in Example 9 (the compositions containing any of Compounds I-1, and I-3 to I-5, and the nucleic acid) and the preparations obtained in Comparative Example 1 (the compositions containing any of DLin-KC2-DMA and Compounds VII-1 to VII-3, and the nucleic acid) was introduced into cells of a human liver cancer-derived cell line HepG2 (HB-8065) by the following method.
Each preparation diluted with Opti-MEM (GIBCO Co., Ltd., 31985) so that the final concentration of the nucleic acid was 1 to 30 nM was dispensed in a 96-well culture plate at 20 μL/well. […]
By using the obtained cDNA as a template and also using a universal probe library (Roche Applied Science, Inc., 04683633001) as the probe and ABI7900HT Fast (manufactured by ABI, Inc.), a PCR reaction was performed according to the method described in the protocol attached thereto, so that the apo-b gene and D-glyceraldehyde-3-phosphate dehydrogenase (hereinafter, represented by “gapdh”) gene, which is a constitutively expressed gene, were subjected to the PCR reaction. Then, the amount of the amplified mRNA was measured for each gene, and aquasi-quantitative value of the apo-b mRNA was calculated using the amount of the amplified gapdh mRNA as the internal control. […]

Where [3] appears, read: preparations of Example 9: cationic lipid/PEG-DMPE Na/DSPC/cholesterol with apo-b siRNA.
The mark [4] stands for this setting: preparations of Examples 10 and 11: cationic lipid/PEG-DMPE Na/DSPC/cholesterol with f7 siRNA.
Setting [5] is: preparations of Comparative Example 1, made as in Example 9, with apo-b siRNA.

Turning to `CCCCC/C=C\C/C=C\CCCCCCCCN(CCCCCCCC/C=C\C/C=C\CCCCC)C(=O)OCCCN(C)C` [Compound I-1, 3-(Dimethylamino)propyl di((9Z,12Z)-octadeca-9,12-dienyl)carbamate], in the data set on Factor VII, the “Factor VII protein level in the plasma (expression of the Factor VII gene)” value (“Factor VII protein level in the plasma” below) is given as “strongly suppressed”. The figures for the “Particle diameter of Preparation obtained” value (“Particle diameter” for short) in data set [1] (setting [3]) and in data set [1] (setting [4]) were 151.8 nm and 118.9 nm, respectively.

As for `CCCCCCCC/C=C\CCCCCCCCN(CCCCCCCC/C=C\CCCCCCCC)C(=O)OCCCN(C)C` [Compound I-2, 3-(Dimethylamino)propyl di((Z)-octadec-9-enyl)carbamate], the “Particle diameter” value in data set [1] (setting [3]) turned out to be 135.8 nm.

As for `CCCCCC/C=C\CCCCCCCCN(CCCCCCCC/C=C\CCCCCC)C(=O)OCCCN(C)C` [Compound I-3, 3-(Dimethylamino)propyl di((Z)-hexadec-9-enyl)carbamate], the “Particle diameter” value in data set [1] (setting [3]) was 150.0 nm.

As for `CCCCC/C=C\C/C=C\CCCCCCCCCCN(CCCCCCCCCC/C=C\C/C=C\CCCCC)C(=O)OCCCN(C)C` [Compound I-4, 3-(Dimethylamino)propyl di((11Z,14Z)-icosa-11,14-dienyl)carbamate], the “Particle diameter” value in data set [1] (setting [3]) is on record as 159.0 nm.

As for `CCCCC/C=C\C/C=C\CCCCCCCCN(CCCCCCCC/C=C\C/C=C\CCCCC)C(=O)OCCN(C)C` [Compound I-5, 2-(Dimethylamino)ethyl di((9Z,12Z)-octadeca-9,2-dienyl)carbamate], the “Particle diameter” value in data set [1] (setting [3]) is recorded as 137.0 nm.

Take `CCCCC/C=C\C/C=C\CCCCCCCCN(CCCCCCCC/C=C\C/C=C\CCCCC)C(=O)OCCC1CCCN1C` (stereo not drawn) [Compound I-6, 2-(1-Methylpyrrolidin-2-yl)ethyl di((9Z,12Z)-octadeca-9,12-dienyl)carbamate]: the “Factor VII protein level in the plasma” value in the data set with Factor VII is recorded as “strongly suppressed”. Further, the “Particle diameter” value in data set [1] (setting [4]) was 121.1 nm.

In the case of `CCCCC/C=C\C/C=C\CCCCCCCCN(CCCCCCCC/C=C\C/C=C\CCCCC)C(=O)OCCCN1CCCCC1` [Compound I-7, 3-(Piperidin-1-yl)propyl di((9Z,12Z)-octadeca-9,12-dienyl)carbamate], the “Factor VII protein level in the plasma” value in the data set on Factor VII was “strongly suppressed”. Besides, in data set [1] (setting [4]), the “Particle diameter” value turned out to be 131.8 nm.

On to `CCCCC/C=C\C/C=C\CCCCCCCCN(CCCCCCCC/C=C\C/C=C\CCCCC)C(=O)OCCCN1CCCC1` [Compound I-8, 3-(Pyrrolidin-1-yl)propyl di((9Z,12Z)-octadeca-9,2-dienyl)carbamate], for which the “Factor VII protein level in the plasma” value with Factor VII is “strongly suppressed”. Also, the “Particle diameter” value in data set [1] (setting [4]) stood at 121.6 nm.

As to `CCCCC/C=C\C/C=C\CCCCCCCCN(CCCCCCCC/C=C\C/C=C\CCCCC)C(=O)CCCCN` [Compound VII-1, 5-Amino-N,N-di((9Z,12Z)-octadeca-9,12-dienyl)pentanamide, reference compound], the “Particle diameter” value in data set [1] (setting [5]) stood at 176.6 nm.

For `CCCCC/C=C\C/C=C\CCCCCCCCN(CCCCCCCC/C=C\C/C=C\CCCCC)C(=O)CCCCN(C)C` [Compound VII-2, 5-(Dimethylamino)-N,N-di((9Z,12Z)-octadeca-9,12-dienyl)pentanamide, reference compound], in data set [2], the “expression of the apo-b gene mRNA” value was “did not suppress the expression of the apo-b gene mRNA”. Moreover, the “Particle diameter” value in data set [1] (setting [5]) came out at 160.1 nm.

For `CCCCC/C=C\C/C=C\CCCCCCCCN(CCCCCCCC/C=C\C/C=C\CCCCC)C(=O)OCCCN` [Compound VII-3, 3-Aminopropyl di((9Z,12Z)-octadeca-9,12-dienyl)carbamate, reference compound], in data set [1] (setting [5]), the “Particle diameter” value was determined as 177.7 nm.

On to `CCCCC/C=C\C/C=C\CCCCCCCCC1(CCCCCCCC/C=C\C/C=C\CCCCC)OCC(CCN(C)C)O1` (stereo not drawn) [DLin-KC2-DMA, 2,2-dilinoleyl-4-(2-dimethylaminoethyl)-[1,3]-dioxolane, reference compound], for which the “Particle diameter” value in data set [1] (setting [5]) came out at 159.8 nm.
